Assay results taken from patent US20240228497A1, “Pyrrolo[2, 3-b]Pyrazine-Based Bifunctional Compounds as HPK1 Degraders and the Use Thereof” (BeiGene, Ltd., priority 2021, published 2024).

Tests used:
[1] = molecular target: T1, HPK1 kinase (aa1-346, Life Technologies) (Homo sapiens, UniProt Q92918); assay: HPK Kinase Activity Assay at 1 mM ATP (TR-FRET); assay type: biochemical; settings: HPK1 kinase 40 nM, 0.5 μM STK1 substrate, 60 min preincubation, read-out: Enzymatic activity IC50
T1 construct: HPK1 kinase (aa1-346, Life Technologies); purchased Life Technologies
T1 sequence (Q92918 1-346): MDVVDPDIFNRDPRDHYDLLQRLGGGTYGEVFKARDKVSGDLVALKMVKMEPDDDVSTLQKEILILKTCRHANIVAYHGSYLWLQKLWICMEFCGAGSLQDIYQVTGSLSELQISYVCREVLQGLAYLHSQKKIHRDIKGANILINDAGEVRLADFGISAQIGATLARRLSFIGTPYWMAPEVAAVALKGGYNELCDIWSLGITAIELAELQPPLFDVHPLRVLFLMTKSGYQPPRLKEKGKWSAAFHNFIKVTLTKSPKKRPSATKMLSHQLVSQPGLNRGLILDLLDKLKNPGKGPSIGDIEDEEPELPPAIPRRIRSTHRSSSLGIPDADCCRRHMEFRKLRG
Procedure: HPK Kinase Activity Assay at 1 mM ATP
Compounds disclosed herein were tested for inhibition of HPK1 kinase (aa1-346, Life Technologies) activity in assays based on the time-resolved fluorescence-resonance energy transfer (TR-FRET) methodology. The assays were carried out in 384-well low volume black plates in a reaction mixture containing HPK1 kinase (40 nM), 1 mM ATP, 0.5 μM STK1 substrate and 0-10 μM compound in buffer containing 50 mM HEPES, 0.01% BSA, 0.1 mM Orthovanadate, 10 mM MgCl2, 1 mM DTT, pH=7.0, 0.005% Tween-20. The kinase was incubated with the compounds disclosed herein or DMSO for 60 minutes at room temperature and the reaction was initiated by the addition of ATP and STK1 substrate. After reaction at room temperature for 120 minutes, an equal volume of stop/detection solution was added according to the manufacture's instruction (CisBio). The stop/detection solution contained STK Antibody—Cryptate and XL665-conjugated streptavidin in Detection Buffer. The TR-FRET signals (ratio of fluorescence emission at 665 nm over emission at 620 nm with excitation at 337 nm wavelength) were recorded on a PHERAstar FS plate reader (BMG Labtech). Phosphorylation of STK1 substrate led to the binding of STK Antibody—Cryptate to the biotinylated STK1 substrate, which places fluorescent donor (Eu^3+ crypate) in close proximity to the accepter (Streptavidin-XL665), thus resulting in a high degree of fluorescence resonance energy transfer. The inhibition of HPK1 in presence of increasing concentrations of compounds was calculated based on the ratio of fluorescence at 665 nm to that at 620 nm. IC50 determination was performed by fitting the curve of percent inhibition versus the log of the inhibitor concentration using Dotmatics.

[2] = system: pSLP76 (S376) level in Jurkat cell line; assay: Cellular pSLP76(S376) HTRF Assay in Jurkat cells; assay type: cell-based; settings: 2 h compound treatment, stimulated with 0.05 μg/mL anti-human CD3 (OKT3) for 30 min
Procedure: Cellular pSLP76(S376) HTRF Assay
Jurkat cell line was used in this study. Cells were maintained in RPMI 1640 supplemented with heat-inactivated 10% fetal bovine serum (Thermo Fisher), 50 units/mL penicillin and streptomycin (Thermo Fisher) and kept at 37° C. in a humidified atmosphere of 5% CO2 in air. Cells were reinstated from frozen stocks that were laid down within 30 passages from the original cells purchased. After cell starvation in the assay buffer (RPMI 1640 supplemented with heat-inactivated 0.1% fetal bovine serum) for 18 hours, cells were seeded into a round bottom 96-well plate at 150,000 cells per well density. Cells were treated with a 9-point dilution series of test compounds. The final compound concentration is from 0 to 2 μM. After 2 h compound treatment, cells were stimulated with 0.05 μg/mL anti-human CD3 (OKT3, Bioxcell) for 30 min at 37° C. Then the cells were lysed, and the pSLP76 (S376) level in the cell lysates was detected by HTRF kit (Cisbio). A total of 16 μL of cell lysate from each well of a 96-well plate was transferred to a 384-well small volume white assay plate. Lysate from each well was incubated with 2 μL of Eu^3+-cryptate (donor) labeled anti-phospho-SLP76 and 2 μL of D2 (acceptor) labeled anti-phospho-SLP76 antibodies (Cisbio) overnight in dark at room temperature. FRET signals (655 nm) were measured using a PHERAstar FSX reader (BMG Labtech). IC50 determination was performed by fitting the curve of percent inhibition versus the log of the inhibitor concentration using Dotmatics.

[3] = molecular target: T2, HPK1 protein (Homo sapiens, UniProt Q92918); assay: HPK1 Protein Degradation Assay in Human PBMC (Western Blot); assay type: cell-based; settings: 24 h compound incubation
T2 construct: host or cells: human PBMC (CD4+ and CD8+ T cells gated in the FACS assay)
Procedure: HPK1 Protein Degradation Assay in Human PBMC (Western Blot)
Human PBMCs (AllCells) was used in this study. Cells were thawed one day in advance and maintained in RPMI-1640 supplemented 10% fetal bovine serum (Thermo Fisher), 50 units/mL penicillin and streptomycin (Thermo Fisher) and the mixture was kept at 37° C. in a humidified atmosphere air containing 5% CO2. 3×10^6 PBMCs per well in 1 mL culture medium were seeded in the 12-well plate, and the cells were treated with an appropriate dilution series of compounds with a final concentration up to […]. After 24 h of compound incubation, the medium was aspirated, the cells were washed with PBS, and then 30 μL of 1X protein lysis buffer (Cell Signaling Technology) containing protease inhibitors (Merck) and phosphatase inhibitors (Sigma) was added. The cells were lysed. After centrifugation, the supernatants were quantified by BCA protein assay kit (Thermo Fisher). 4X loading Buffer (Thermo Fisher) was added to equal amounts of total protein from each sample and heated at 95° C. for 5 minutes. 30-50 μg of cell lysate was loaded onto a 4%-12% NuPAGE Bis-Tris Gel (Thermo Fisher) and electro-transferred to NC membranes (Thermo Fisher). The membranes were blocked for least 1 hour with blocking reagent (LI-COR), and then incubated overnight with anti-HPK1 (Cell Signaling Technology, 4472S) antibodies and as loading control anti-ß-actin (Cell Signaling Technology, 3700S) or anti-GAPDH (Cell Signaling Technology, 97166S) at 4° C. with gentle shaking. The membranes were washed three times with TBST, and incubated at least 1 hour at room temperature with anti-mouse or anti-rabbit secondary fluorescent antibody (Thermo Fisher, A32729; LI—COR, 926-32213). Then the membranes were washed three times in TBST, and one time in water. Immunoreactive bands were visualized by Odyssey CLx and analyzed by GraphPad Prism 8.

[4] = molecular target: T2, HPK1 protein; assay: HPK1 Protein Degradation Assay in Human PBMC (FACS); assay type: cell-based; settings: 24 h compound treatment
Procedure: HPK1 Protein Degradation Assay in Human PBMC (FACS)
Human PBMCs (AllCells) was used in this study. Cells were thawed one day in advance and maintained in RPMI-1640 supplemented 10% fetal bovine serum (Thermo Fisher), 50 units/mL penicillin and streptomycin (Thermo Fisher) and the mixture was kept at 37° C. in a humidified atmosphere air containing 5% CO2. 3×10^6 PBMCs per well in 95 μL culture medium were seed in the 96-well plate, and the cells were treated with an appropriate dilution series of compounds. After 24 h compound treatment, 100 μL 1xLyse/Fix buffer (BD, diluted with water, warm up in 37° C.) was added to cells and the cells were incubated at 37° C. for 10 minutes. After fixed, the cells were transferred to V-bottom plates (Corning), and washed with FACS buffer (cold 2% FBS DPBS). The cells were permeabilized by adding 100 μL pre-chilled BD Phosflow Perm Buffer III (BD) for 30 min on ice. After washed with FACS buffer twice, the cells were incubated with 50 μL antibody cocktail (HPK1(CST)(1:50), anti-human CD4 BV421 (BD)(1:25), anti-human CD8 APC(BD) (1:25)) at room temperature for 1 h. After washed with FACS buffer twice, the cells were further incubated with 50 μL secondary antibody cocktail (Biolegend) (1:50) at room temperature for 1 h. After washed with FACS buffer twice, the signals were detected by BD FACS Celesta. The data were analyzed by Excel and GraphPad Prism 8.

[5] = CD4+ T Cells, read-out: Protein degradation DC50, CD4+ T Cells
[6] = CD4+ T Cells, read-out: Protein degradation Dmax, CD4+ T Cells
[7] = CD8+ T Cells, read-out: Protein degradation DC50, CD8+ T Cells
[8] = CD8+ T Cells, read-out: Protein degradation Dmax, CD8+ T Cells

T2 sequence (Q92918 whole entry): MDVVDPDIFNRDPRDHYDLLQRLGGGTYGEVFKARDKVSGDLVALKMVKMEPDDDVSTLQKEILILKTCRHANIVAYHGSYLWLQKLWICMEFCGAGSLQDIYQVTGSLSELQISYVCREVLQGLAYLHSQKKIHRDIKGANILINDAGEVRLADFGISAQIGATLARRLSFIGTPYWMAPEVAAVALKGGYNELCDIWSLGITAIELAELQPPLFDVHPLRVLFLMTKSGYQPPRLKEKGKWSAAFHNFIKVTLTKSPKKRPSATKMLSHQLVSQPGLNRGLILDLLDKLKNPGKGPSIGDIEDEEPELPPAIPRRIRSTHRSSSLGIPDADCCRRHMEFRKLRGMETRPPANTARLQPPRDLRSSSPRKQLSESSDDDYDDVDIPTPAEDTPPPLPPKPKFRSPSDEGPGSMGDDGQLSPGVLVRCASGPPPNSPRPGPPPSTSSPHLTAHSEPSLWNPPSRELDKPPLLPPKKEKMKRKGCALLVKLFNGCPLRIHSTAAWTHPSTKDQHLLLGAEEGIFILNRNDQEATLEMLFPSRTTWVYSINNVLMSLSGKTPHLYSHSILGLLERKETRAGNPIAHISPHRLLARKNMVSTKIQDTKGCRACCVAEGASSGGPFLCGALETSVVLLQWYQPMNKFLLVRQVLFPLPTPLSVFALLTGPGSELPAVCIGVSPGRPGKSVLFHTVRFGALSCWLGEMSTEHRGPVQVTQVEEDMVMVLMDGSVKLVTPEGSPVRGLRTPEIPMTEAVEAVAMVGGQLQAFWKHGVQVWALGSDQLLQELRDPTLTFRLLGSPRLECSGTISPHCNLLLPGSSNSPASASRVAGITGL

Compound	IC50 [1]	IC50 [2]	DC50 [3]	Dmax [3]	Protein degradation DC90 [3]	Protein degradation DC90, CD4+ T Cells ([4]; CD4+ T Cells)	DC50 [4, 5]	Dmax [4, 6]	Protein degradation DC90, CD8+ T Cells ([4]; CD8+ T Cells)	DC50 [4, 7]	Dmax [4, 8]
Cc1cc(-c2c[nH]c3ncc(-c4cc(C)c5c(c4)CCN(CCNC(=O)C4CCN(c6ccc7c(c6)C(=O)N(C6CCC(=O)NC6=O)C7=O)CC4)C5)nc23)ccc1C(=O)N(C)C (stereo not drawn) [Example 1, N-(2-(6-(7-(4-(dimethylcarbamoyl)-3-methylphenyl)-5H-pyrrolo[2,3-b]pyrazin-2-yl)-8-methyl-3,4-dihydroisoquinolin-2(1H)-yl)ethyl)-1-(2-(2,6-dioxopiperidin-3-yl)-1,3-dioxoisoindolin-5-yl)piperidine-4-carboxamide]	0.121 µM	0.879 µM	0.183 µM	47%	3.805 µM						
Cc1cc(-c2cnc3[nH]cc(-c4ccc(C(=O)N(C)C)cc4)c3n2)cc2c1CN(CCC(=O)N1CCN(c3ccc(N4CCC(=O)NC4=O)cc3)CC1)CC2 [Example 5, 4-(2-(2-(3-(4-(4-(2,4-dioxotetrahydropyrimidin-1(2H)-yl)phenyl)piperazin-1-yl)-3-oxopropyl)-8-methyl-1,2,3,4-tetrahydroisoquinolin-6-yl)-5H-pyrrolo[2,3-b]pyrazin-7-yl)-N,N-dimethylbenzamide]	0.024 µM	0.116 µM				0.06 µM	0.009 µM	95%	0.128 µM	0.017 µM	96%
Cc1cc(-c2cnc3[nH]cc(-c4ccc(C(=O)N(C)C)cc4)c3c2)cc2c1CN(CCC(=O)N1CCN(c3ccc(N4CCC(=O)NC4=O)cc3)CC1)CC2 [Example 6, 4-(5-(2-(3-(4-(4-(2,4-dioxotetrahydropyrimidin-1(2H)-yl)phenyl)piperazin-1-yl)-3-oxopropyl)-8-methyl-1,2,3,4-tetrahydroisoquinolin-6-yl)-1H-pyrrolo[2,3-b]pyridin-3-yl)-N,N-dimethylbenzamide]	0.031 µM	0.088 µM				0.052 µM	0.011 µM	96%	0.104 µM	0.016 µM	96%
Cc1cc(-c2cnc3[nH]cc(-c4ccc(C(=O)N(C)C[C@H](C)O)cc4)c3n2)cc2c1CN(CCC(=O)N1CCN(c3ccc(N4CCC(=O)NC4=O)cc3)CC1)CC2 [Example 7, (S)-4-(2-(2-(3-(4-(4-(2,4-dioxotetrahydropyrimidin-1(2H)-yl)phenyl)piperazin-1-yl)-3-oxopropyl)-8-methyl-1,2,3,4-tetrahydroisoquinolin-6-yl)-5H-pyrrolo[2,3-b]pyrazin-7-yl)—N-(2-hydroxypropyl)—N-methylbenzamide]	0.02 µM	0.307 µM				0.118 µM	0.025 µM	95%	0.388 µM	0.045 µM	95%
Cc1cc(-c2c[nH]c3ncc(-c4cc(C)c5c(c4)CCN(CCNC(=O)CC4CCN(c6ccc(C7CCC(=O)NC7=O)cc6)CC4)C5)nc23)ccc1C(=O)N(C)C (stereo not drawn) [Example 8, 4-(2-(2-(2-(2-(1-(4-(2,6-dioxopiperidin-3-yl)phenyl)piperidin-4-yl)acetamido)ethyl)-8-methyl-1,2,3,4-tetrahydroisoquinolin-6-yl)-5H-pyrrolo[2,3-b]pyrazin-7-yl)-N,N,2-trimethylbenzamide]	0.297 µM	0.496 µM									
Cc1cc(-c2cnc3[nH]cc(-c4ccc(C(=O)N(C)C[C@H](C)O)cc4)c3c2)cc2c1CN(CCC(=O)N1CCN(c3ccc(N4CCC(=O)NC4=O)cc3)CC1)CC2 [Example 9, (S)-4-(5-(2-(3-(4-(4-(2,4-dioxotetrahydropyrimidin-1(2H)-yl)phenyl)piperazin-1-yl)-3-oxopropyl)-8-methyl-1,2,3,4-tetrahydroisoquinolin-6-yl)-1H-pyrrolo[2,3-b]pyridin-3-yl)-N-(2-hydroxypropyl)-N-methylbenzamide]	0.016 µM	0.181 µM				0.077 µM	0.019 µM	93%	0.495 µM	0.071 µM	95%
